# Assay results: patent US20050175535A1 (CV Therapeutics, Inc., priority 2000, published 2005)
# Read-outs that look alike come from different tables or passages of the source.
# Assays:
# [1] = tested on: rat isolated perfused heart; experiment: Coronary conductance / coronary perfusion pressure in isolated perfused rat hearts; conditions: for EC50: Rattus norvegicus; for effect on coronary conductance: isolated rat hearts, in words
# Procedure: Briefly, rats of either sex weighing 230-260 grams were anesthetized by intraperitoneal injection of a mixture of ketamine (100 mg/ml) and xylazine (20 mg/ml). The chest of each rat was opened and the heart removed, and rinsed in ice-cold modified Krebs-Henseleit (K-H) solution containing NaCl 117.9, KCl 4.5, CaCl2 2.5, MgSO4 1.18, KH2PO4 1.18, pyruvate 2.0 mmo/L. The aorta was cannulated and the heart was perfused at a flow rate of 10 ml/min with modified K-H solution. The K-H solution (pH 7.4) was gassed continuously with 95% O2 and 5% CO2 and warmed to 35±0.5° C. The heart was electrically paced at a fixed cycle length of 240 ms (250 beats/min) using a bipolar electrode placed in the left atrium. The electrical stimuli were generated by a Grass stimulator (Model S48, W. Warwick, R.I.) and delivered through a Stimuli Isolation Unit (Model SIU5, Astro-Med, Inc., NY) as square-wave pulses of 3-msec in duration and with an amplitude of at least twice the threshold intensity.
# The identity of the adenosine receptor subtype (A1 or A2A) mediating the coronary vasodilation was determined.
# Coronary perfusion pressure (CPP) was measured using a pressure transducer that was connected to the aortic cannula via a T-connector positioned approximately 3 cm above the heart. CPP was monitored throughout an experiment and recorded either on a chart recorder (Gould Recorder 2200S, Valley View, Ohio) or a computerized recording system (PowerLab/4S, ADInstruments Pty Ltd, Australia). Only hearts with CPP ranging from 60 to 85 mmHg (in the absence of drugs) were used in the study. CC conductance (in ml/min/mmHg) was calculated as the ratio between coronary perfusion rate (10 ml/min) and CPP.
# [2] = Coronary blood flow and hemodynamics in conscious dogs; assay type: in vivo; conditions: for ED50: Canis lupus familiaris, read-out: ED50, increase in mean CBF
# Procedure: Ten mongrel dogs (weighing 23-27 kg) were premedicated with Acepromazine (0.3 mg/kg im) and anesthetized with sodium pentobarbital (25 mg/kg) and then intubated and ventilated with room air. A thoracotomy was performed in the left fifth intercostal space using sterile surgical techniques. A Tygon catheter (Cardiovascular Instruments, Inc.) was placed in the descending thoracic aorta for the measurements of blood pressure. A solid-state pressure gauge (P6.5, Konisberg Instrument, Inc) was placed in the apex of the left ventricle for the measurement of the left ventricular systolic pressure (LVSP) and calculation of first derivative of left ventricular pressure (LV dP/dt). A Doppler transducer (Craig Hartley) was placed on the left circumflex coronary artery for measurement of CBF. An hydraulic coronary occluder (In Vivo Metric, Inc) was implanted in 4 dogs around the left circumflex coronary artery. The chest was closed in layers and the catheters and wires were run subcutaneously and exited in the interscapular area. The dogs were allowed 10 to 14 days to recover fully from the surgery and were trained to lie on a laboratory table. The protocols were approved by the Institutional Animal Care and Use Committee of New York Medical College and conform to the “Guiding Principles for the use and Care of Laboratory Animals” of the National Institute of Health and the American Physiology Society.
# Arterial pressure was measured by connecting the previously implanted catheter to a strain-gauge transducer (P231D, Statham) and mean arterial pressure (MAP) was derived using 2-Hz low-pass filter. […] Left circumflex CBF was measured using a pulsed Doppler flowmeter (System 6, Triton technology), and mean CBF was derived using a 2-Hz low-pass filter. Mean CR was calculated as the quotient of MAP and CBF. Heart rate was monitored from the pressure pulse interval using a cardiotachometer (Beckman Instruments). The lead-2 of the electrocardiogram was recorded during the experiments in order to examine the alterations in the AV nodal conduction (PR interval). All signals were recorded on a direct-writing oscillograph (Gould 2800).
# Hemodynamics were measured before, during and after each dose. Following each dose hemodynamics were allowed to return to baseline before the administration of the next dose. Changes in heart rate, blood pressure, CBF, and ECG were recorded.
# Hemodynamic results are expressed as mean±SEM. […] Because no statistical differences were found among the baseline values between each dose for each parameter measure, the first baseline registered during each experiment was used as the control value.
# [3] = biological target: A2A adenosine receptors (PC12 cells) (Rattus norvegicus, UniProt P30543); experiment: cAMP accumulation in PC12 cells
# Chain of A2A adenosine receptors (PC12 cells) (P30543 whole entry): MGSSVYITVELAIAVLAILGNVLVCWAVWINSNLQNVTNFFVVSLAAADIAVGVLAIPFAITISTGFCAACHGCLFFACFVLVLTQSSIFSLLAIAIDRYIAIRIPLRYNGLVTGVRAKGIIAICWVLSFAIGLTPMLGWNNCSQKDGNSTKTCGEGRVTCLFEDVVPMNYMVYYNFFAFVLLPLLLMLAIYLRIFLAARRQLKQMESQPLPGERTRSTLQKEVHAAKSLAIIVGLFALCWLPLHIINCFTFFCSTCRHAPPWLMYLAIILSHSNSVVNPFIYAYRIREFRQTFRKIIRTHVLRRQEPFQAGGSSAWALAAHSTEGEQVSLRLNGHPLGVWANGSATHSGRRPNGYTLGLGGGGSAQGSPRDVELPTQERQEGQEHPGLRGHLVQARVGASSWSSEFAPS
# Procedure: Effects of adenosine receptor agonists on cAMP content in intact PC12 cells. […] Cyclic AMP levels were determined as described under “Methods”. Values represent mean±SEM of results of triplicate samples from three experiments. […] Values represent mean±SEM of triplicate determinants from one representative experiment.
# Briefly, PC12 cells were rinsed three times with Hanks' balanced saline solution (HBSS), detached using a cell lifter, and pelleted by centrifugation at 500 g for 5 minutes. Aliquots of the cell suspension (0.1 to 0.2 mg protein) were placed in microfuge tubes with 250 μL of HBSS containing rolipram (50 μmol/L) to inhibit phosphodiesterases that degrade cAMP_and warmed to 37° C. Appropriate drugs were added to the cell suspensions, and incubations were allowed to continue for 10 minutes. Tubes were placed in a boiling water bath for 5 minutes to terminate the incubation. The samples were then cooled to room temperature, diluted by the addition of 1 mL of 10 mmol/L Tris-HCl buffer at pH 7.4, and then centrifuged for 2 minutes at 13000 g.
# The samples were then incubated at 4° C. for 16 hours. At the end of the incubation, 70 μL of a 50% (wt/vol) hydroxyapatite suspension was added to each tube. The suspensions were gently agitated and then incubated for 10 minutes at 4° C. Antibody-bound radioactivity adsorbed to hydroxyapatite was collected onto glass fiber filters by vacuum filtration using a Brandel cell harvester. Radioactivity retained by the filter was counted in a gamma counter. […] The amount of cAMP present in samples was calculated based on a standard curve using known amounts of cAMP.
# [4] = biological target: T1, human A1 adenosine receptors (Homo sapiens, UniProt P30542); experiment: Competitive radioligand binding, [3H]CPX, CHO-hA1AdoR membranes; conditions: for Ki: [3H]CPX; for affinity for the A1 receptor expressed by CHO-K1 cells: in words
# T1 construct: expressed in transfected cells
# T1 sequence (P30542 1-326): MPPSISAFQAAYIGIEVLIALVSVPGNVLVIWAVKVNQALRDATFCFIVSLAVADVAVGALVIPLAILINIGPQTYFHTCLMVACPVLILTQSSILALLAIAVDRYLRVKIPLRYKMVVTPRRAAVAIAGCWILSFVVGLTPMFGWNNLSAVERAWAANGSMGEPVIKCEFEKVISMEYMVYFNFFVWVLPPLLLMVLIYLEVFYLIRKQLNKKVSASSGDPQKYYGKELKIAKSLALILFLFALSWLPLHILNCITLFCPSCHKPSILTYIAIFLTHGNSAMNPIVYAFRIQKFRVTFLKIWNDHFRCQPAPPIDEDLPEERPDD
# Procedure: The cell suspensions were homogenized and centrifuged at 48,000g for 15 minutes. The pellets were washed three times by re-suspension in ice-cold Tris-HCl buffer and centrifugation. The final pellet was re-suspended in Tris-HCl, aliquoted and frozen at −80° C. until used for receptor binding assays.
# [5] = read-out: EC50, Coronary Conductance (Rat Isolated Heart)
# [6] = read-out: pEC50 ± SEM, Coronary Conductance (Rat Isolated Heart) (converted)
# [7] = read-out: pKi ± SEM, CHO-hA1AdoR (converted)
Structure (SMILES),"EC50 [1, 5] [nM]","EC50 [1, 6] [nM]",effect on coronary conductance [1],"ED50 ([2]; IV bolus, conscious dogs) [mg/kg]",EC50 [3] [nM],"Ki ([4]; read-out: Ki, CHO-hA1AdoR) [µM]","Ki [4, 7] [µM]",affinity for the A1 receptor expressed by CHO-K1 cells [4],further results
"Nc1ncnc2c1ncn2[C@@H]1O[C@H](CO)[C@@H](O)[C@H]1O [Adenosine, adenosine, reference compound]",59.2,57.5,concentration-dependent increases in coronary conductance,0.051 ± 0.015,–,–,–,–,"increase in LVSP ([2]; 67 μg/kg, conscious dogs): 12±3%; increase in LVSP ([2]; 134 μg/kg, conscious dogs): 12±3%; maximal decrease in CR ([2]; 267 μg/kg iv, conscious dogs): 73±1%; increase in LVSP ([2]; 267 μg/kg, conscious dogs): 18±6%; increase in dP/dt ([2]; 267 μg/kg, conscious dogs): 29±7%"
CCCCCn1cc(-c2nc(N)c3ncn(C4O[C@@H](CO)[C@H](O)[C@@H]4O)c3n2)cn1 (stereo partly shown) [CVT-3033],68,64.6,increased coronary conductance in a concentration-dependent manner,–,487,5.84,5.75,relatively low affinities,"shift to the right of the CGS21680 concentration-response curve ([3]; CVT-3033 1 μM, PC12 cells): ~5 fold; Emax ([3]; PC-12, read-out: maximal response of cAMP accumulation, % of that induced by CGS21680): 63%; agonist behaviour in PC12 cells ([3]; cAMP accumulation): partial A2A agonists"
CNC(=O)c1cnn(-c2nc(N)c3ncn(C4O[C@@H](CO)[C@H](O)[C@@H]4O)c3n2)c1 (stereo partly shown) [CVT-3146],6.4,6.46,increased coronary conductance in a concentration-dependent manner,0.00034 ± 8e-05,291,> 16.5,25.7,relatively low affinities,"decrease in coronary perfusion pressure ([1]; 10 nM, isolated rat heart): 23 mmHg; effect of 60 nM CPX (A1 antagonist) on the increase in coronary conductance ([1]; CVT-3146 10 nM): not affected; effect of 60 nM ZM241385 (A2a antagonist) on the increase in coronary conductance ([1]; CVT-3146 10 nM): completely reversed; coronary conductance ([1]; CVT-3146 10 nM, baseline 0.16±0.02, n=6 hearts): 0.22±0.01 ml mm Hg−1 min−1; agonist behaviour with respect to coronary artery conductance ([1]; isolated rat heart): full agonist; maximal decrease in CR ([2]; 2.5 μg/kg iv, conscious dogs): 73±2%; increase in dP/dt ([2]; 2.5 μg/kg, conscious dogs): 39±7%; maximal decrease in CR ([2]; 5 μg/kg iv, conscious dogs): 75±2%; maximal increase in mean CBF from baseline ([2]; IV bolus, conscious dogs, baseline 45±3 ml/min): 154 ± 16 mL/min; changes in LVSP ([2]; increasing doses, conscious dogs (data not shown)): did not cause significant changes in LVSP"
